One may read the IC50 as the concentration that inhibits the measured activity by half.

GI50 and IC50 data for three compounds are collected here from US7745437B2, “Compounds and compositions as protein kinase inhibitors” (IRM LLC, priority 2004, dated 2010).

For test [1], the target named is T1, FGFR3 (Homo sapiens, UniProt P22607). Nature of the test: FGFR3 (Cellular Assay), Ba/F3-TEL-FGFR3 cell proliferation. It counts as cell-based. Also on record: fused on or other part: P41212 (Transcription factor ETV6). The following applies: Ba/F3-TEL-FGFR3 cells, 48 hours; read-out: IC50 for the FGFR3 cellular assay. As to the method:
Compounds of the invention are tested for their ability to inhibit transformed Ba/F3-TEL-FGFR3 cells proliferation, which is depended on FGFR3 cellular kinase activity. Ba/F3-TEL-FGFR3 are cultured up to 800,000 cells/mL in suspension, with RPMI 1640 supplemented with 10% fetal bovine serum as the culture medium. Cells are dispensed into 384-well format plate at 5000 cell/well in 50 μL culture medium. Compounds of the invention are dissolved and diluted in dimethylsufoxide (DMSO). Twelve points 1:3 serial dilutions are made into DMSO to create concentrations gradient ranging typically from 10 mM to 0.05 μM. Cells are added with 50 nL of diluted compounds and incubated for 48 hours in cell culture incubator. AlamarBlue® (TREK Diagnostic Systems), which can be used to monitor the reducing environment created by proliferating cells, are added to cells at final concentration of 10%. After additional four hours of incubation in a 37° C. cell culture incubator, fluorescence signals from reduced AlamarBlue® (Excitation at 530 nm, Emission at 580 nm) are quantified on Analyst GT (Molecular Devices Corp.). IC50 values are calculated by linear regression analysis of the percentage inhibition of each compound at 12 concentrations.
Target sequence in this assay (P22607 472-761 limits assumed, change not shown): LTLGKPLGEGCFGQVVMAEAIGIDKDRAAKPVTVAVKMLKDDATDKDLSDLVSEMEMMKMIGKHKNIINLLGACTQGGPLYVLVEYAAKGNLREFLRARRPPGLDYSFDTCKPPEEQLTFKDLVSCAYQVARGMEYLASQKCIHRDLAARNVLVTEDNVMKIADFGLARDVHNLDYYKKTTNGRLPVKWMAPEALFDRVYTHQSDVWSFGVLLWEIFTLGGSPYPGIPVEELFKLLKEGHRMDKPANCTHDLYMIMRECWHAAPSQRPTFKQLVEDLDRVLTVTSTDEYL

The target of a further test is T2, PDGFRβ (Homo sapiens, UniProt P09619).
T2 construct: fused on or other part: P41212 (Transcription factor ETV6)
Nature of the test: PDGFRβ (Cellular Assay), Ba/F3-Tel-PDGFRβ cell proliferation. It counts as cell-based. The note with it: Ba/F3-Tel-PDGFRβ cells; read-out: IC50 for PDGFRβ.

Another test has as its target T3, FLT3 (Homo sapiens, UniProt P36888, cells depend on it, form not given).
T3 sequence (P36888 1-993): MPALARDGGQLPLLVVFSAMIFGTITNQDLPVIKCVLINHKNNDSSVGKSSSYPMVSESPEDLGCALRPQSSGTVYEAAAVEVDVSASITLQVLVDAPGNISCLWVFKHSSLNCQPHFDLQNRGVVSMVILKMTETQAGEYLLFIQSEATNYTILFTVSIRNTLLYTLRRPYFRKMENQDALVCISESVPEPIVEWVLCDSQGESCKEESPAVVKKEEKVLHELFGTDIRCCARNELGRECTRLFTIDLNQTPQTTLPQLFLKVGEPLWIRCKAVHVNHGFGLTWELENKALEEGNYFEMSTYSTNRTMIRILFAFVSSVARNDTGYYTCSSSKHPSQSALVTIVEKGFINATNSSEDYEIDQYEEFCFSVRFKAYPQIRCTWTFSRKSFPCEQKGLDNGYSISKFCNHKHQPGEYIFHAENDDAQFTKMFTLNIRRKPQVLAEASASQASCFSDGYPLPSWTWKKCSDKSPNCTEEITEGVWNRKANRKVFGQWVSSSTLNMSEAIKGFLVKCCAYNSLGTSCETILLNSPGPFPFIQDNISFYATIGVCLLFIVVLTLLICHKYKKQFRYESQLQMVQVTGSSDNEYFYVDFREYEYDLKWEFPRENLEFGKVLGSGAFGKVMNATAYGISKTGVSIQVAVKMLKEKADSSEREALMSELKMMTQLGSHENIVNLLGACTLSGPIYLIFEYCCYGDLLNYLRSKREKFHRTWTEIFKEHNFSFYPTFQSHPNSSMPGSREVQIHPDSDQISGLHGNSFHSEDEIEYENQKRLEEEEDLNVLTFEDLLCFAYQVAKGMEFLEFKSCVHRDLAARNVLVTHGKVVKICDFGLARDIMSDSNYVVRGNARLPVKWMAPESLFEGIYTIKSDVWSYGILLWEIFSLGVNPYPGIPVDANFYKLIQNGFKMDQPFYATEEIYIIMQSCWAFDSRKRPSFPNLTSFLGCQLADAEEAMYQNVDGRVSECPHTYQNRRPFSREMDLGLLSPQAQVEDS
Nature of the test: FLT3 (Cellular Assay), Ba/F3-FLT3-ITD cell proliferation. It counts as cell-based. The note with it: read-out: IC50 for FLT3.

Test [2] deals with T1, FGFR3. Nature of the test: FGFR3 (Enzymatic Assay), HTRF. Type of test: biochemical. Also on record: purchased Upstate. The note with it: purified FGFR3, 3 μM ATP; read-out: IC50 for the FGFR3 enzyme assay. As to the method:
Kinase activity assay with purified FGFR3 (Upstate) is carried out in a final volume of 10 μL containing 0.25 μg/mL of enzyme in kinase buffer (30 mM Tris-HCl pH7.5, 15 mM MgCl2, 4.5 mM MnCl2, 15 μM Na3VO4 and 50 μg/mL BSA), and substrates (5 μg/mL biotin-poly-EY (Glu, Tyr) (CIS-US, Inc.) and 3 μM ATP). Two solutions are made: the first solution of 5 μl contains the FGFR3 enzyme in kinase buffer was first dispensed into 384-format ProxiPlate® (Perkin-Elmer) followed by adding 50 nL of compounds dissolved in DMSO, then 5 μl of second solution contains the substrate (poly-EY) and ATP in kinase buffer was added to each wells. The reactions are incubated at room temperature for one hour, stopped by adding 10 μL of HTRF detection mixture, which contains 30 mM Tris-HCl pH7.5, 0.5 M KF, 50 mM ETDA, 0.2 mg/mL BSA, 15 μg/mL streptavidin-XL665 (CIS-US, Inc.) and 150 ng/mL cryptate conjugated anti-phosphotyrosine antibody (CIS-US, Inc.). After one hour of room temperature incubation to allow for streptavidin-biotin interaction, time resolved florescent signals are read on Analyst GT (Molecular Devices Corp.). IC50 values are calculated by […] analysis of the percentage inhibition of each compound at 12 concentrations (1:3 dilution from 50 μM to 0.28 nM).
Target sequence in this assay (P22607 23-806): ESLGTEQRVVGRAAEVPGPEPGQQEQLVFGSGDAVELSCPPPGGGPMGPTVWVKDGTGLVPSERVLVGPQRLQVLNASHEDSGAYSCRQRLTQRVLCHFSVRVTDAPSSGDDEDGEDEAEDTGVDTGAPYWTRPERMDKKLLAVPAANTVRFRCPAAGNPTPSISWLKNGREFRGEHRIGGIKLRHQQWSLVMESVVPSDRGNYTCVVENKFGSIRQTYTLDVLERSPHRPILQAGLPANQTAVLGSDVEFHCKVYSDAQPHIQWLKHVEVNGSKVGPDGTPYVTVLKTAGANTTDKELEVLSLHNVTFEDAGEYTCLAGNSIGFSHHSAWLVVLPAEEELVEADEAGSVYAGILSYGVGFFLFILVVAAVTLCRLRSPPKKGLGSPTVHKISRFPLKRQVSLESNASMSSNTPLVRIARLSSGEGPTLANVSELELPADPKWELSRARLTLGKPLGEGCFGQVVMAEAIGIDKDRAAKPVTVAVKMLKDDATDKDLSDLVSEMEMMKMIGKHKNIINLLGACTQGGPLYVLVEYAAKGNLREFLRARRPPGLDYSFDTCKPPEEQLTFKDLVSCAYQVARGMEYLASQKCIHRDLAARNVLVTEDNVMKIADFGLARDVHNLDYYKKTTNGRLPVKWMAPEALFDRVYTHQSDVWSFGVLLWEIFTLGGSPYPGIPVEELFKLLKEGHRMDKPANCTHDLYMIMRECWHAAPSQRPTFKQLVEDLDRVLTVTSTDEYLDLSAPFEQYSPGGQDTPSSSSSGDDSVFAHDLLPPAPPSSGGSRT

The next test concerns the target T4, F317L Bcr-abl (Homo sapiens, UniProt P00519, F317L).
T4 construct: expressed in transfected cells; host or cells: Ba/F3; the other entry of the earlier key: BCR (P11274, Breakpoint cluster region protein)
Nature of the test: Proliferation of Ba/F3 cells expressing mutant Bcr-abl F317L. It counts as cell-based. As to the method:
(§1) 32D-p210 cells are plated into 96 well TC plates at a density of 15,000 cells per well. 50 μL of two fold serial dilutions of the test compound (Cmax is 40 μM) are added to each well (STI571 is included as a positive control). After incubating the cells for 48 hours at 37° C., 5% CO2, 15 μL of MTT (Promega) is added to each well and the cells are incubated for an additional 5 hours. The optical density at 570 nm is quantified spectrophotometrically and IC50 values, the concentration of compound required for 50% inhibition, determined from a dose response curve.
(§2) Compounds of the invention are tested for their antiproliferative effect on Ba/F3 cells expressing either wild type or the mutant forms of BCR-Abl (G250E, E255V, T3151, F317L, M351T) that confers resistance or diminished sensitivity to STI571. The antiproliferative effect of these compounds on the mutant-BCR-Abl expressing cells and on the non transformed cells were tested at 10, 3.3, 1.1 and 0.37 μM as described above (in media lacking IL3). The IC50 values of the compounds lacking toxicity on the untransformed cells were determined from the dose response curves obtained as describe above.

A further test deals with T5, G250E Bcr-abl (Homo sapiens, UniProt P00519, G250E).
T5 construct: expressed in transfected cells; host or cells: Ba/F3; the other entry of the earlier key: BCR (P11274, Breakpoint cluster region protein)
T5 sequence (P00519 229-512 G250E limits assumed): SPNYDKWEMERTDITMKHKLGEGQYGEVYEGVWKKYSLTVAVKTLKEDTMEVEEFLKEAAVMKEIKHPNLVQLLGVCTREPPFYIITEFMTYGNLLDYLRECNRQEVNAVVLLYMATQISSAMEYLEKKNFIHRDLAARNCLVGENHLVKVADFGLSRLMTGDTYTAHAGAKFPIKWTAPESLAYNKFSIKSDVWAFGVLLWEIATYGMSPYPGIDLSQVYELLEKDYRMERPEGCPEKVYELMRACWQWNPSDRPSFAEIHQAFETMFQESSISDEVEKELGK
Nature of the test: Proliferation of Ba/F3 cells expressing mutant Bcr-abl G250E. Type of test: cell-based. As to the method: as §1, §2

The next test has as its target T6, wild type Bcr-abl (Homo sapiens, UniProt P00519).
T6 construct: expressed in transfected cells; host or cells: Ba/F3; the other entry of the earlier key: BCR (P11274, Breakpoint cluster region protein)
Nature of the test: Proliferation of Ba/F3 cells expressing wild type Bcr-abl. Type of test: cell-based. As to the method:
as §1, §2

In a further test the target is T7, M351T Bcr-abl (Homo sapiens, UniProt P00519, M351T).
T7 construct: expressed in transfected cells; host or cells: Ba/F3; the other entry of the earlier key: BCR (P11274, Breakpoint cluster region protein)
T7 sequence (P00519 242-493 M351T limits assumed): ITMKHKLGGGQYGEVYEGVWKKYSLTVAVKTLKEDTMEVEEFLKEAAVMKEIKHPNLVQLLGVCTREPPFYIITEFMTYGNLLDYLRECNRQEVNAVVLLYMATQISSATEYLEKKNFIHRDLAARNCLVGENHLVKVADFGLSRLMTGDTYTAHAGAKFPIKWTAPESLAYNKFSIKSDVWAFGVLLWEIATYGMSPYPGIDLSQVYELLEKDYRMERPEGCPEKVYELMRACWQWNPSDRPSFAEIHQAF
Nature of the test: Proliferation of Ba/F3 cells expressing mutant Bcr-abl M351T. Type of test: cell-based. As to the method:
as §1, §2

The target of the next test is T8, E255V Bcr-abl (Homo sapiens, UniProt P00519, E255V).
T8 construct: expressed in transfected cells; host or cells: Ba/F3; the other entry of the earlier key: BCR (P11274, Breakpoint cluster region protein)
Nature of the test: Proliferation of Ba/F3 cells expressing mutant Bcr-abl E255V. Type of test: cell-based. As to the method: as §1, §2

T2 sequence (P09619 600-962 limits assumed, change not shown): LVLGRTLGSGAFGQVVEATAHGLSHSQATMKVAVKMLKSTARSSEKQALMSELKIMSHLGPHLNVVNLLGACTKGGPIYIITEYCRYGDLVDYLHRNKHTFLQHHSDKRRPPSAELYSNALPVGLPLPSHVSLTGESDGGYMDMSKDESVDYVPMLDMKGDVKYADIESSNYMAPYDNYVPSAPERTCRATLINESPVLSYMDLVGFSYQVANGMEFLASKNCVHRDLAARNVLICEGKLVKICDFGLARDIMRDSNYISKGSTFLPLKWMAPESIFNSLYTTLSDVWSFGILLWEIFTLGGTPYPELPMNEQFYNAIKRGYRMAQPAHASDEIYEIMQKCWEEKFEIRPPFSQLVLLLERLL

`Cc1ccc(NC(=O)c2ccc(CN3CCN(C)CC3)c(C(F)(F)F)c2)cc1Nc1nccn1-c1cc(NC2CC2)ncn1` [Compound 26, N-{3-[1-(6-Cyclopropylamino-pyrimidin-4-yl)-1H-imidazol-2-ylamino]-4-methyl-phenyl}-4-(4-methyl-piperazin-1-ylmethyl)-3-trifluoromethyl-benzamide]: the GI50 on FGFR3 [1] turned out to be 0.037 µM; on PDGFRβ, 0.002 µM; on FLT3, 0.089 µM. The IC50 on FGFR3 [2] came out at 0.065 µM.
As for `Cc1cn(-c2cc(C(=O)Nc3ccc(C)c(Nc4nccn4-c4cc(NC5CC5)ncn4)c3)cc(C(F)(F)F)c2)cn1` [Compound 27, N-{3-[1-(6-cyclopropylamino-pyrimidin-4-yl)-1H-imidazol-2-ylamino]-4-methyl-phenyl}-3-(4-methyl-imidazol-1-yl)-5-trifluoromethyl-benzamide], the IC50 on F317L Bcr-abl was below 0.0005 µM; at G250E Bcr-abl it was 0.02 µM; on wild type Bcr-abl, below 0.0005 µM; against M351T Bcr-abl, below 0.0005 µM; against E255V Bcr-abl, 0.036 µM.
For `CCN1CCN(Cc2ccc(C(=O)Nc3ccc(C)c(Nc4nccn4-c4cc(NC5CC5)ncn4)c3)cc2C(F)(F)F)CC1` [Compound 25, N-{3-[1-(6-Cyclopropylamino-pyrimidin-4-yl)-1H-imidazol-2-ylamino]-4-methyl-phenyl}-4-(4-ethyl-piperazin-1-ylmethyl)-3-trifluoromethyl-benzamide], the values for the GI50 at FGFR3 [1], at PDGFRβ and at FLT3 were 0.034 µM, 0.002 µM and 0.149 µM, respectively. Moreover, the IC50 at FGFR3 [2] was 0.13 µM.
